# Laboratory results from ChEMBL document CHEMBL1150015, “Rational design of purine nucleoside phosphorylase inhibitors: Design of 2-(2-Haloethyl) and 2-ethenyl substituted quinazolinone alkylating agents” (Bioorg Med Chem Lett, 1992).
# Molecular target: T1, Purine nucleoside phosphorylase (Homo sapiens) (UniProt P00491)
# T1 sequence (whole entry): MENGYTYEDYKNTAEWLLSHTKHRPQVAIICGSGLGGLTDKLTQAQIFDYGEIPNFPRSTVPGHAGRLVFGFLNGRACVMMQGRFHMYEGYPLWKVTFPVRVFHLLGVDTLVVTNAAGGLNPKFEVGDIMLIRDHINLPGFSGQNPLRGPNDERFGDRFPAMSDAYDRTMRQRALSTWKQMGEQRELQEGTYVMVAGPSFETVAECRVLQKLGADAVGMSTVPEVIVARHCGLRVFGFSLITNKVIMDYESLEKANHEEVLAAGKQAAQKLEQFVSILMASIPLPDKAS
# Assay: Second order rate constant for the inactivation of Purine Nucleoside Phosphorylase by compound in 0.05 M Phosphate Buffer and at a pH 7.4 (u=0.1 KCl) at 30.0 degree Centigrade
row,k [M⁻¹ s⁻¹],SMILES
1,7.97,O=C1C=CC(=O)c2c(O)nc(CCBr)nc21
2,4.73,Nc1nc(O)c2c(n1)C(=O)C=CC2=O
3,3.1,C=Cc1nc(O)c2c(n1)C(=O)C=CC2=O
4,3.7,O=C1C=CC(=O)c2c(O)nc(CBr)nc21

# Second part, the compound before the results:
row,SMILES,k [M⁻¹ s⁻¹]
1,O=C1C=CC(=O)c2c(O)nc(-c3ccccc3)nc21,15.9
2,O=C1C=CC(=O)c2c(O)ncnc21,1.62
